In test [1] the target is T1, Lysine 5,6-aminomutase (5,6-LAM) (Acetoanaerobium sticklandii, UniProt E3PRJ4+E3PRJ5).
T1 construct: gene kamD
T1 sequence (E3PRJ5 1-519 limits assumed): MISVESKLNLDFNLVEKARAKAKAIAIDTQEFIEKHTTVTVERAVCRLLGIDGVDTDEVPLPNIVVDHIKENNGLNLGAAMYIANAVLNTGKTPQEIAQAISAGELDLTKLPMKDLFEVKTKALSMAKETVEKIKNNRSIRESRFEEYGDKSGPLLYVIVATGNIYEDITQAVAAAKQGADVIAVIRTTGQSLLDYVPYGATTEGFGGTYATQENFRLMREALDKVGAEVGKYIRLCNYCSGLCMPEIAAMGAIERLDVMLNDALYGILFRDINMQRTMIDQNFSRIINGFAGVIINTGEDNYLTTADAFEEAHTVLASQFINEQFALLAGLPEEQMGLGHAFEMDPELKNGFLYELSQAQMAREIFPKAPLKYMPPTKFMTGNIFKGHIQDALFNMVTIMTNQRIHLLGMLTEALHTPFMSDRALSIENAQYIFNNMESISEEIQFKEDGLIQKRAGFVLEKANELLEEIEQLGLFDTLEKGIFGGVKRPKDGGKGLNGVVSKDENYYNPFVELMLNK
T1 sequence (E3PRJ4 1-262): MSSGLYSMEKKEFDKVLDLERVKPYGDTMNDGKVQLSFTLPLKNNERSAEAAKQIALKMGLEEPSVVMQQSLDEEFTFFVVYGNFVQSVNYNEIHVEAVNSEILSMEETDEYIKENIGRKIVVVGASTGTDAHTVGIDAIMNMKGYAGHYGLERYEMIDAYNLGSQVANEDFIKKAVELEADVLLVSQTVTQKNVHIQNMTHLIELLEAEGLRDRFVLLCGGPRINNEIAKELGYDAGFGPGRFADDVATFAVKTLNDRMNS
The test can be described thus: UV-visible and X-band EPR spectroscopy. Type of test: binding. The following applies: PLP and dAdoCbl holoenzyme, 100 mM NH4-EPPS pH 8.5, 37 °C; 2.5 mM (UV-vis) or 30 mM (EPR) 5-HL; active site, external aldimine with PLP; mechanism-based (suicide) inhibitor; stereoisomer mixture.

For test [2], the target named is T1, Lysine 5,6-aminomutase (5,6-LAM). The following applies: turnover to 2,5-DAH at 1 and 3 min; PLP and dAdoCbl as cofactors.

As for `NCC(O)CCC(N)C(=O)O` (racemic) [5-HL, 5-hydroxylysine], in test [1], the “UV-visible and X-band EPR spectroscopy” value is “These spectral changes demonstrate that 5-HL mimics the initial steps of transaldimination and Co–C bond rupture”.
As to `NCCCC[C@@H](N)C(=O)O` [D-lysine], the “thin-layer chromatography of product, ninhydrin” value in test [2] was “bottom spot corresponding to D-lysine and the top spot corresponding to the product”.

Values taken from PMC12429584, “5-Hydroxylysine Captures the Suicidally-Inactivated Conformational State of Lysine 5,6-Aminomutase” (International Journal of Molecular Sciences, 2025).
